Reference: patent US9732075B2, “Benzimidazole-proline derivatives” (IDORSIA PHARMACEUTICALS LTD, priority 2012, dated 2017)

Key:
human orexin-1 receptor = human orexin-1 receptor (Homo sapiens (Human), UniProt O43613); experiment: In vitro assay: intracellular calcium measurements (FLIPR), antagonistic activity; type: cell-based; conditions: CHO cells expressing human orexin-1 receptor, orexin-A agonist, geometric mean, read-out: IC50 Ox1
Procedure, shortened: (§1)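 In this FLIPR calcium assay, antagonists were given 120 min on CHO cells with human OX1 or OX2 receptor before orexin-A (3 nM final) was added. Peak fluorescence was measured at 1 s intervals against the uninhibited agonist peak, and IC50s were averaged geometrically.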

human orexin-2 receptor = human orexin-2 receptor (Homo sapiens (Human), UniProt O43614); experiment: as above; type: cell-based; conditions: CHO cells expressing human orexin-2 receptor, orexin-A agonist, geometric mean, read-out: IC50 Ox2
Procedure, shortened: as §1

human orexin-1 receptor, sequence (O43613 whole entry): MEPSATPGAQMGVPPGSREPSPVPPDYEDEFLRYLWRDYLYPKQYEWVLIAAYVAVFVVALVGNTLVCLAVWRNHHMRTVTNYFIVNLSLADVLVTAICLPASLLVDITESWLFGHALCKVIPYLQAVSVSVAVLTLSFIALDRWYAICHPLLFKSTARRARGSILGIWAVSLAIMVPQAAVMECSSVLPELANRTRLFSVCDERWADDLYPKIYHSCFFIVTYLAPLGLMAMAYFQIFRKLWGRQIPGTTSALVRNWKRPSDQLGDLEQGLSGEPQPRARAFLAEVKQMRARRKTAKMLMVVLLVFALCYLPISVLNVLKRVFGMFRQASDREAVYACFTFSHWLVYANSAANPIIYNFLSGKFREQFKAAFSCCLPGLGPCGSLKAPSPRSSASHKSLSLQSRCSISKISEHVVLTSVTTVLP
human orexin-2 receptor, sequence (O43614 whole entry): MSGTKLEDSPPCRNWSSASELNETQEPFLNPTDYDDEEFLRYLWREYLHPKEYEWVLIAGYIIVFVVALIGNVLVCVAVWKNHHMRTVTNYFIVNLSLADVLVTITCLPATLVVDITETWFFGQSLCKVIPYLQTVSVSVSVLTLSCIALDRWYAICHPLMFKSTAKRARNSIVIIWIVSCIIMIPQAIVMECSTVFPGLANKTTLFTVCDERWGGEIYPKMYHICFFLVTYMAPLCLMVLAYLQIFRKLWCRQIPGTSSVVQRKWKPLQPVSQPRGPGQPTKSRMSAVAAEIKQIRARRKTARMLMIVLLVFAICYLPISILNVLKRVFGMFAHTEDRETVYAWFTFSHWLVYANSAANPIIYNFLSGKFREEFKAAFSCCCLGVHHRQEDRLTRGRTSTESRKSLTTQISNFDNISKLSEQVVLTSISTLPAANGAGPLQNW

| Compound | IC50 (human orexin-1 receptor) [nM] | IC50 (human orexin-2 receptor) [nM] |
| --- | --- | --- |
| Cc1nc(C(=O)N2CC[C@H](C)[C@H]2c2nc3c(C)cc(Cl)cc3[nH]2)c(-c2cc(F)cc(F)c2)s1 [Ex. 4.98] | 4 | 1300 |
| Cc1ccc(-n2nccn2)c(C(=O)N2CC[C@H](C)[C@H]2c2nc3c(C)cc(Cl)cc3[nH]2)c1F [Ex. 4.99] | 13 | 981 |
| Cc1nc(C(=O)N2CC[C@H](C)[C@H]2c2nc3c(C)cc(Cl)cc3[nH]2)c(-c2ccc(F)cc2)s1 [Ex. 4.100] | 6 | 1280 |
| Cc1cc(Cl)cc2[nH]c([C@@H]3[C@@H](C)CCN3C(=O)c3ccccc3-n3nccn3)nc12 [Ex. 4.101] | 18 | 183 |
| Cc1ccc(-c2ccccn2)c(C(=O)N2CC[C@H](C)[C@H]2c2nc3cc(Cl)c(C)cc3[nH]2)c1 [Ex. 4.102] | 10 | 103 |
| Cc1cc2[nH]c([C@@H]3[C@@H](C)CCN3C(=O)c3cc(Cl)ccc3-c3ccccc3)nc2cc1Cl [Ex. 4.103] | 4 | 178 |
| Cc1ccc(-c2cccnc2)c(C(=O)N2CC[C@H](C)[C@H]2c2nc3cc(Cl)c(C)cc3[nH]2)c1 [Ex. 4.104] | 14 | 1660 |
| Cc1cc2[nH]c([C@@H]3[C@@H](C)CCN3C(=O)c3cc(F)ccc3-c3ccccc3)nc2cc1Cl [Ex. 4.105] | 5 | 177 |
| Cc1cc2[nH]c([C@@H]3[C@@H](C)CCN3C(=O)c3cc(F)ccc3-c3ccccn3)nc2cc1Cl [Ex. 4.106] | 23 | 529 |
| Cc1cc2[nH]c([C@@H]3[C@@H](C)CCN3C(=O)c3c(F)cccc3-c3cccnc3)nc2cc1Cl [Ex. 4.107] | 47 | 1760 |
| Cc1cc2[nH]c([C@@H]3[C@@H](C)CCN3C(=O)c3cc(C#N)ccc3-c3ccccc3)nc2cc1Cl [Ex. 4.108] | 7 | 419 |
| Cc1ccc(C(=O)N2CC[C@H](C)[C@H]2c2nc3cc(Cl)c(C)cc3[nH]2)c(-c2ccccn2)c1 [Ex. 4.109] | 3 | 108 |
| Cc1ccc(C(=O)N2CC[C@H](C)[C@H]2c2nc3cc(Cl)c(C)cc3[nH]2)c(-c2cccnc2)c1 [Ex. 4.110] | 13 | 1520 |
| Cc1ccc(C(=O)N2CC[C@H](C)[C@H]2c2nc3cc(Cl)c(C)cc3[nH]2)c(-c2ccccc2)c1 [Ex. 4.111] | 2 | 110 |
| Cc1cc2[nH]c([C@@H]3[C@@H](C)CCN3C(=O)c3c(F)cccc3-c3ccccc3)nc2cc1Cl [Ex. 4.112] | 3 | 1060 |
| Cc1cc2[nH]c([C@@H]3[C@@H](C)CCN3C(=O)c3c(-c4ccccn4)ccc(C)c3F)nc2cc1Cl [Ex. 4.113] | 9 | 2040 |
| Cc1cc2[nH]c([C@@H]3[C@@H](C)CCN3C(=O)c3cc(C(F)(F)F)ccc3-c3ccccc3)nc2cc1Cl [Ex. 4.114] | 33 | 1360 |
| Cc1cc2[nH]c([C@@H]3[C@@H](C)CCN3C(=O)c3c(-c4ccccc4)ccc(C)c3F)nc2cc1Cl [Ex. 4.115] | 7 | 754 |
| Cc1ccc(-c2ccccc2)c(C(=O)N2CC[C@H](C)[C@H]2c2nc3cc(Cl)c(C)cc3[nH]2)c1 [Ex. 4.116] | 6 | 198 |

| Compound | IC50 (human orexin-1 receptor) [nM] | IC50 (human orexin-2 receptor) [nM] |
| --- | --- | --- |
| Cc1cc2[nH]c([C@@H]3[C@@H](C)CCN3C(=O)c3c(-c4cccnc4)ccc(C)c3F)nc2cc1Cl [Ex. 4.117] | 16 | 2570 |
| Cc1nc(C(=O)N2CC[C@H](C)[C@H]2c2nc3c(Cl)cccc3[nH]2)c(-c2ccc(F)cc2)s1 [Ex. 4.118] | 50 | 4350 |
| Cc1nc(C(=O)N2CC[C@H](C)[C@H]2c2nc3c(Cl)cccc3[nH]2)c(-c2cc(F)cc(F)c2)s1 [Ex. 4.119] | 21 | 2050 |
| Cc1nc(C(=O)N2CC[C@H](C)[C@H]2c2nc3c(Cl)cccc3[nH]2)c(-c2ccc(Cl)cc2)s1 [Ex. 4.120] | 14 | 725 |
| COc1cccc(-c2sc(C)nc2C(=O)N2CC[C@H](C)[C@H]2c2nc3c(Cl)cccc3[nH]2)c1 [Ex. 4.121] | 6 | 475 |
| Cc1cccc(-c2sc(C)nc2C(=O)N2CC[C@H](C)[C@H]2c2nc3c(Cl)cccc3[nH]2)c1 [Ex. 4.122] | 3 | 610 |
| Cc1nc(C(=O)N2CC[C@H](C)[C@H]2c2nc3c(Cl)cccc3[nH]2)c(-c2ccc(Br)cc2)s1 [Ex. 4.123] | 21 | 871 |
| Cc1ccc(-c2sc(C)nc2C(=O)N2CC[C@H](C)[C@H]2c2nc3c(Cl)cccc3[nH]2)cc1 [Ex. 4.124] | 8 | 591 |
| Cc1nc(C(=O)N2CC[C@H](C)[C@H]2c2nc3c(Cl)cccc3[nH]2)c(-c2ccc(C)c(C)c2)s1 [Ex. 4.125] | 1 | 81 |
| Cc1nc(C(=O)N2CC[C@H](C)[C@H]2c2nc3c(Cl)cccc3[nH]2)c(-c2ccc(F)c(F)c2)s1 [Ex. 4.126] | 43 | 2380 |
| Cc1ccc(-c2sccc2C(=O)N2CC[C@H](C)[C@H]2c2nc3c(Cl)cccc3[nH]2)cc1C [Ex. 4.127] | 1 | 19 |
| Cc1ccc(-c2sc(N(C)C)nc2C(=O)N2CC[C@H](C)[C@H]2c2nc3c(Cl)cccc3[nH]2)cc1C [Ex. 4.128] | 1 | 387 |
| COc1ccccc1-c1sc(C)nc1C(=O)N1CC[C@H](C)[C@H]1c1nc2c(Cl)cccc2[nH]1 [Ex. 4.129] | 35 | 2750 |
| Cc1ccc(C(=O)N2CC[C@H](C)[C@H]2c2nc3cc(Cl)c(C)cc3[nH]2)c(-c2ncccn2)c1 [Ex. 4.130] | 11 | 128 |
| Cc1cc2[nH]c([C@@H]3[C@@H](C)CCN3C(=O)c3cc(F)ccc3-c3ncccn3)nc2cc1Cl [Ex. 4.131] | 23 | 501 |
| Cc1cc2[nH]c([C@@H]3[C@@H](C)CCN3C(=O)c3c(-c4ncccn4)ccc(C)c3F)nc2cc1Cl [Ex. 4.132] | 87 | 1320 |
| Cc1cc2[nH]c([C@@H]3[C@@H](C)CCN3C(=O)c3c(F)cccc3-c3ncccn3)nc2cc1Cl [Ex. 4.133] | 25 | 359 |
| COc1cccc(C#Cc2ccccc2C(=O)N2CC[C@H](C)[C@H]2c2nc3c(C)c(Cl)ccc3[nH]2)c1 [Ex. 4.134] | 1 | 86 |
| COc1cccc(C#Cc2ccccc2C(=O)N2CC[C@H](C)[C@H]2c2nc3cc(Cl)c(C)cc3[nH]2)c1 [Ex. 4.135] | 4 | 203 |

| Compound | IC50 (human orexin-1 receptor) [nM] | IC50 (human orexin-2 receptor) [nM] |
| --- | --- | --- |
| Cc1nc(C(=O)N2CC[C@H](C)[C@H]2c2nc3cc(C(F)(F)F)ccc3[nH]2)c(-c2ccc(F)cc2)s1 [Ex. 4.136] | 14 | 4360 |
| COc1cccc(-c2sc(C)nc2C(=O)N2CC[C@H](C)[C@H]2c2nc3cc(C(F)(F)F)ccc3[nH]2)c1 [Ex. 4.137] | 5 | 3090 |
| Cc1cccc(-c2sc(C)nc2C(=O)N2CC[C@H](C)[C@H]2c2nc3cc(C(F)(F)F)ccc3[nH]2)c1 [Ex. 4.138] | 2 | 1340 |
| Cc1nc(C(=O)N2CC[C@H](C)[C@H]2c2nc3cc(C(F)(F)F)ccc3[nH]2)c(-c2ccc(Cl)cc2)s1 [Ex. 4.139] | 5 | 2260 |
| Cc1ccc(-c2sc(C)nc2C(=O)N2CC[C@H](C)[C@H]2c2nc3cc(C(F)(F)F)ccc3[nH]2)cc1 [Ex. 4.140] | 7 | 2170 |
| COc1ccc(-c2sc(C)nc2C(=O)N2CC[C@H](C)[C@H]2c2nc3cc(C(F)(F)F)ccc3[nH]2)cc1 [Ex. 4.141] | 5 | 2760 |
| Cc1nc(C(=O)N2CC[C@H](C)[C@H]2c2nc3cc(C(F)(F)F)ccc3[nH]2)c(-c2ccc(Br)cc2)s1 [Ex. 4.142] | 6 | 2160 |
| Cc1nc(C(=O)N2CC[C@H](C)[C@H]2c2nc3cc(C(F)(F)F)ccc3[nH]2)c(-c2ccc(F)c(F)c2)s1 [Ex. 4.143] | 24 | 3680 |
| Cc1ccc(-c2sccc2C(=O)N2CC[C@H](C)[C@H]2c2nc3cc(C(F)(F)F)ccc3[nH]2)cc1C [Ex. 4.144] | 9 | 463 |
| Cc1nc(C(=O)N2CC[C@H](C)[C@H]2c2nc3cc(C(F)(F)F)ccc3[nH]2)c(-c2ccccc2Cl)s1 [Ex. 4.146] | 6 | 2110 |
| COc1ccccc1-c1sc(C)nc1C(=O)N1CC[C@H](C)[C@H]1c1nc2cc(C(F)(F)F)ccc2[nH]1 [Ex. 4.147] | 13 | 9650 |
| Cc1nc(C(=O)N2CC[C@H](C)[C@H]2c2nc3cc(C(F)(F)F)ccc3[nH]2)c(-c2cc(F)cc(F)c2)s1 [Ex. 4.148] | 7 | 3180 |
| Cc1nc(C(=O)N2CC[C@H](C)[C@H]2c2nc3c(C(F)(F)F)cccc3[nH]2)c(-c2ccc(F)cc2)s1 [Ex. 4.149] | 14 | 752 |
| Cc1nc(C(=O)N2CC[C@H](C)[C@H]2c2nc3c(C(F)(F)F)cccc3[nH]2)c(-c2ccc(Cl)cc2)s1 [Ex. 4.150] | 6 | 180 |
| Cc1nc(C(=O)N2CC[C@H](C)[C@H]2c2nc3c(C(F)(F)F)cccc3[nH]2)c(-c2ccc(Br)cc2)s1 [Ex. 4.151] | 5 | 185 |
| Cc1nc(C(=O)N2CC[C@H](C)[C@H]2c2nc3c(C(F)(F)F)cccc3[nH]2)c(-c2ccc(C)c(C)c2)s1 [Ex. 4.152] | 2 | 40 |
| Cc1nc(C(=O)N2CC[C@H](C)[C@H]2c2nc3c(C(F)(F)F)cccc3[nH]2)c(-c2ccc(F)c(F)c2)s1 [Ex. 4.154] | 26 | 4800 |
| Cc1nc(C(=O)N2CC[C@H](C)[C@H]2c2nc3c(C(F)(F)F)cccc3[nH]2)c(-c2ccccc2Cl)s1 [Ex. 4.155] | 42 | 891 |
| COc1ccccc1-c1sc(C)nc1C(=O)N1CC[C@H](C)[C@H]1c1nc2c(C(F)(F)F)cccc2[nH]1 [Ex. 4.156] | 14 | 489 |
